Biological target: T1, CD33 wild-type (Homo sapiens, UniProt P20138)
T1 construct: DNA encoding D18 to H143 of human CD33; made in house
Assay: surface plasmon resonance (SPR), CD33 wild-type V-set domain
Assay type: binding
Settings: P22 as analyte, immobilized CD33 wild-type; 1:1 steady state model
Procedure: We next performed surface plasmon resonance (SPR) measurements on P22 binding to CD33 wild-type, and selected mutants, to obtain detailed kinetic data (see Transparent Methods). The CD33 V-set domain has a free cysteine residue (C36), which caused anomalous results in some of our SPR experiments due to disulfide-linked oligomers forming in solution.
Figure 3 P22 Binding to CD33 Wild-Type and Mutants (A) An example of affinity analysis for 1–243 μM (3-fold dilutions) of P22 binding to immobilized CD33^C36S. Data obtained in duplicate using single-cycle analysis and fit to a steady-state binding model to determine the equilibrium binding constant. (B) An example of affinity analysis of P22 binding to immobilized CD33 wild-type (WT) as per example in (A). (C) Sensorgram data for 0.01–9 μM (3-fold dilutions) of CD33^C36S binding to immobilized P22. Data obtained in triplicate using single concentration cycles and fit to a 1:1 binding model for kinetic analysis. (D) Sensorgram data for 0.03–9 μM (3-fold dilutions) CD33 WT binding to immobilized P22. Data obtained in triplicate using single concentration cycles and fit to a bivalent analyte model for kinetic analysis. Measurements in triplicate showing mean ± SD. […] Data presented are representative of three independent experiments performed in quadruplicate for each compound. […]

T1 sequence (P20138 18-143): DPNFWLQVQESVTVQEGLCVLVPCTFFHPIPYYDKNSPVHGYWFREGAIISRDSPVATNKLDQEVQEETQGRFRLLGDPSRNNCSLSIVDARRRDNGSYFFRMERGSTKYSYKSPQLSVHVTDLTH

Kd: 118 ± 41 µM
SMILES: Cc1cc(C(=O)NC[C@@H](O)[C@@H](O)[C@@H]2O[C@@](OC[C@H]3O[C@@H](O[C@H]4[C@H](O)[C@@H](O)[C@H](OCCN)O[C@@H]4CO)[C@H](O)[C@@H](O)[C@H]3O)(C(=O)O)C[C@H](O)[C@H]2NC(=O)Cn2cc(C3CCCCC3)nn2)cc(C)c1O [P22, β-D-Glucopyranoside, 2-aminoethyl O-[N-[2-(4-cyclohexyl-1H-1,2,3-triazol-1-yl)acetyl]-9-deoxy-9-[(4-hydroxy-3,5-dimethylbenzoyl)amino]-α-neuraminosyl] (2→6)-O-β-D-galactopyranosyl-(1→4)-]
